ChEMBL document CHEMBL5108080 (J Med Chem, 2022)
Calls of active or inactive are those of the source. No cut-off for these calls is given here.

Tests used:
Influenza A virus [1] = assay: Antiviral activity against […] influenza A H5N1 pseudotyped virus infected in A549 cells assessed as inhibition of viral entry incubated for 48 hrs by measuring luciferase activity by Neolite reporter gene assay; assay type: functional, organism-based; conditions: H5N1, A549, 48 h
[2] = test system: Vesicular stomatitis virus; assay: Antiviral activity against VSV pseudotyped virus infected in A549 cells assessed as inhibition of viral entry incubated for 48 hrs by measuring luciferase activity by Neolite reporter gene assay; assay type: functional, organism-based; conditions: A549, 48 h
Influenza A virus [3] = assay: (§1) Antiviral activity against group 2 influenza A virus H3N2 (A/Victoria/361/2011) infected in MDCK cells infected with supernatant of compound treated virus-producing human A549 cells assessed as reduction in viral titer at 1 to 10 uM treated for 48 hrs with virus-producing human A549 cells followed by MDCK cells infection for 48 hrs by crystal violet staining based plaque assay; assay type: functional, organism-based; conditions: dose 1-10 µM, time 96.0 hrs
Influenza A virus [4] = assay: as §1, with “(A/Hong Kong-11/1968)” for “(A/Victoria/361/2011)”; assay type: functional, organism-based; conditions: dose 1-10 µM, time 96.0 hrs
Influenza A virus [5] = assay: Antiviral activity against group 2 influenza A H7N1 pseudotyped virus infected in A549 cells assessed as inhibition of viral entry incubated for 48 hrs by measuring luciferase activity by Neolite reporter gene assay; assay type: functional, organism-based; conditions: H7N1, A549, 48 h
[6] = Cytotoxicity against human A549 cells incubated for 48 hrs by celltiter-glo luminescent cell viability assay; assay type: toxicity, cell-based
[7] = Selectivity index, ratio of CC50 for human A549 cells to IC50 for group 2 influenza A H7N1 pseudotyped virus infected in A549 cells; assay type: toxicity, cell-based; conditions: read-out: Ratio CC50/IC50
[8] = Selectivity index, ratio of CC50 for human A549 cells to IC50 for VSV pseudotyped virus infected in A549 cells; assay type: toxicity, cell-based; conditions: read-out: Ratio CC50/IC50
[9] = Selectivity index, ratio of CC50 for human A549 cells to IC50 for […] influenza A H5N1 pseudotyped virus infected in A549 cells; assay type: toxicity, cell-based; conditions: read-out: Ratio CC50/IC50
Influenza A virus [10] = assay: Antiviral activity against group 2 influenza A virus H7N1 wild type; assay type: functional, organism-based

SMILES | IC50 (Influenza A virus [1]) [µM] | IC50 [2] [µM] | Activity (Influenza A virus [3]) | Activity (Influenza A virus [4]) | IC50 (Influenza A virus [5]) [µM] | CC50 at 48 h [6] [µM] | selectivity ratio [7] | selectivity ratio [8] | selectivity ratio [9] | IC50 (Influenza A virus [10]) [µM]
Brc1ccc(-c2nc3ncccn3c2NC2CCCCC2)cc1 | > 100 | 42 | Active | Active | 0.2 | > 100 |  |  |  | 
c1ccc(-c2nc3ncccn3c2NC2CCCCC2)cc1 | 46 | 74 | Active | Active | 0.66 | 100 |  |  |  | 
Oc1cccc(-c2nc3ncccn3c2NC2CCCCC2)c1 |  |  |  |  | 10 | 100 | 10 |  |  | 
CCCCOc1ccc(-c2c(NC(C)(C)CC(C)(C)C)nc3ncccn23)cc1 |  |  |  |  | 8.1 | 49 | 6 |  |  | 
CCCCOc1ccc(-c2nc3ncccn3c2NC(C)C)cc1 |  |  |  |  | 2.3 | 68 | 30 |  |  | 
CCCCOc1ccc(-c2nc3ncccn3c2Nc2ccc(F)cc2)cc1 |  |  |  |  | 1.5 | > 100 | > 67 |  |  | 
c1cnc2nc(-c3ccc(OC4CCCC4)cc3)c(NC3CCCCC3)n2c1 |  |  |  |  | 0.68 | 39 | 57 |  |  | 
FC(F)(F)c1cc(Br)ccc1-c1nc2ncccn2c1NC1CCCCC1 | 20 | 24 | Active | Active | 1.4 | 25 | 18 | 1 | 1 | 
Cc1cc(C)n2c(Nc3ccc4c(c3)OCCO4)c(-c3cccc(Br)c3)nc2n1 |  |  |  |  | 0.25 | > 100 | > 400 |  |  | 
CCCCOc1ccc(-c2nc3ncccn3c2NCc2ccc3ccccc3c2)cc1 |  |  |  |  | 6 | 33 | 6 |  |  | 
CCCCOc1ccc(-c2nc3ncccn3c2NCC2CC2)cc1 |  |  |  |  | 25 | > 100 | > 4 |  |  | 
CCCCOc1ccc(-c2nc3ncccn3c2NCc2c[nH]cn2)cc1 |  |  |  |  | 38 | > 100 | > 3 |  |  | 
O=C(O)CCCOc1ccc(-c2nc3ncccn3c2NC2CCCCC2)cc1 |  |  |  |  | 0.18 | > 100 | > 560 |  |  | 
COCCCCOc1ccc(-c2nc3ncccn3c2NC2CCCCC2)cc1 | 92 | 40 | Active | Active | 0.25 | 100 | 400 | 2 | 1 | 
CCCCOc1ccc(-c2nc3ncccn3c2N2C(=O)c3cccc(O)c3C2=O)cc1 |  |  |  |  | 15 | > 100 | > 6.6 |  |  | 
CCCCOc1ccc(-c2c(N)nc3ncccn23)cc1 |  |  |  |  | 58 | > 100 | > 1.7 |  |  | 
Clc1ccc(-c2nc3ncccn3c2NC2CCCCC2)cc1 | > 100 | 36 | Active | Active | 0.15 | > 100 | > 670 | > 2 | > 1 | 
Nc1nc2ncccn2c1-c1ccc(Br)cc1 |  |  |  |  | 100 | > 100 | > 1 |  |  | 
Fc1ccc(COc2ccc(-c3nc4ncccn4c3NC3CCCCC3)cc2)cc1 |  |  |  |  | 0.26 | 24 | 92 |  |  | 
CCCCOc1ccc(-c2nc3ncccn3c2NC2CCCCC2)c(C)c1 |  |  |  |  | 0.22 | 32 | 150 |  |  | 
CCCCOc1ccc(-c2nc3ncccn3c2NCC2CCCCC2)cc1 |  |  |  |  | 0.31 | 35 | 110 |  |  | 
COCCOc1ccc(-c2nc3ncccn3c2NC2CCCCC2)cc1 |  |  |  |  | 0.08 | > 100 | > 1300 |  |  | 
CCCCOc1ccc(-c2nc3ncccn3c2NCc2nc[nH]c2C)cc1 |  |  |  |  | 100 | 100 | 1 |  |  | 
Cc1cc(C)n2c(NC3CCCCC3)c(-c3ccc(Br)cc3)nc2n1 |  |  |  |  | 0.36 | 32 | 51 |  |  | 
CCNC(=O)CCCOc1ccc(-c2nc3ncccn3c2NC2CCCCC2)cc1 |  |  |  |  | 0.064 | > 100 | > 1600 |  |  | 
Cc1cc(Br)ccc1-c1nc2ncccn2c1NC1CCCCC1 | 45 | 39 | Active | Active | 0.17 | 45 |  |  |  | 
COc1ccc(-c2nc3ncccn3c2NC2CCCCC2)cc1 | > 100 | 100 | Active | Active | 0.037 | > 100 |  |  |  | 0.019

SMILES | IC50 (Influenza A virus [1]) [µM] | IC50 [2] [µM] | Activity (Influenza A virus [3]) | Activity (Influenza A virus [4]) | IC50 (Influenza A virus [5]) [µM] | CC50 at 48 h [6] [µM] | selectivity ratio [7] | selectivity ratio [8] | selectivity ratio [9] | IC50 (Influenza A virus [10]) [µM]
CCCCOc1ccc(-c2nc3ncccn3c2Nc2ccccc2)c(C)c1 |  |  |  |  | 4.5 | 23 | 5.1 |  |  | 
CCCCOc1ccc(-c2nc3ncccn3c2NCc2ccccn2)cc1 |  |  |  |  | 16 | > 100 | > 6 |  |  | 
CCCCOc1ccc(-c2nc3ncccn3c2NCCC)cc1 |  |  |  |  | 22 | > 100 | > 5 |  |  | 
CCCCOc1ccc(-c2nc3ncccn3c2Nc2ccccc2)cc1 |  |  |  |  | 100 | 100 | 1 |  |  | 
Oc1ccc(-c2nc3ncccn3c2NC2CCCCC2)cc1 | 36 | 65 | Active | Active | 0.052 | > 100 |  |  |  | 
CCOC(=O)CCCOc1ccc(-c2nc3ncccn3c2NC2CCCCC2)cc1 |  |  |  |  | 1.8 | > 100 | > 560 |  |  | 
CC(C)(C)CC(C)(C)Nc1nc2ncccn2c1-c1ccc(Br)cc1 |  |  |  |  | 8.6 | > 100 | > 12 |  |  | 
CCCCOc1ccc(-c2nc3ncccn3c2NC2CCCCCC2)cc1 |  |  |  |  | 0.44 | 26 | 59 |  |  | 
CCCCOc1ccc(-c2nc3ncccn3c2NC2CCCC2)cc1 |  |  |  |  | 1.5 | 40 | 27 |  |  | 
Brc1ccc(-c2nc3ncccn3c2NC2CCCCC2)c(CN2CCOCC2)c1 | 32 | 60 |  |  | 9.9 | 54 | 5 | < 1 | > 1 | 
CCCCOc1ccc(-c2nc3ncccn3c2NC(C)(C)CC(C)(C)C)cc1 |  |  |  |  | 2.3 | 29 | 13 |  |  | 
Nc1c(-c2ccc(Br)cc2)nc2ncccn12 |  |  |  |  | 100 | > 100 | > 1 |  |  | 
CN(c1c(-c2ccc(F)cc2)nc2ncccn12)C1CCCCC1 |  |  |  |  | 1.3 | > 100 | > 77 |  |  | 
CCCCOc1ccc(-c2nc3ncccn3c2N)cc1 |  |  |  |  | 100 | > 100 | > 1 |  |  | 
CC(C)(C)CC(C)(C)Nc1c(-c2ccc(Br)cc2)nc2ncccn12 |  |  |  |  | 1 | 32 | 32 |  |  | 
CCCCOc1ccc(-c2nc3ncccn3c2NCc2ccco2)cc1 |  |  |  |  | 7.9 | 78 | 10 |  |  | 
CCOC(=O)C1=C[C@@H](OC(CC)CC)[C@H](NC(C)=O)[C@@H](N)C1 [OSELTAMIVIR] |  |  | Active | Active |  |  |  |  |  | 
Oc1ccccc1-c1nc2ncccn2c1NC1CCCCC1 |  |  |  |  | 10 | > 100 | > 10 |  |  | 
CCCCOc1ccc(-c2nc3ncccn3c2NCc2ccc(OC)cc2)cc1 |  |  |  |  | 14 | 55 | 4 |  |  | 
Fc1ccc(-c2nc3ncccn3c2NC2CCCCC2)cc1 | 46 | 53 | Active | Active | 0.023 | 100 |  |  |  | 
COc1ccccc1-c1nc2ncccn2c1NC1CCCCC1 | > 100 | > 100 |  |  | 2.3 | > 100 | > 43 | < 1 | < 1 | 
CCCCOc1ccc(-c2nc3ncccn3c2NC2CCCCC2)cc1 | 84 | 36 |  |  | 0.67 | 52 | 78 | 2 | 1 | 
Cc1cc(Br)ccc1-c1nc2ncccn2c1Nc1ccccc1 | > 100 | 100 |  |  | 2.2 | 40 | 18 | 1 | < 1 | 
Brc1ccc(-c2nc3ncccn3c2Nc2ccccc2)cc1 |  |  |  |  | 1.5 | > 100 | > 67 |  |  | 
COCCOc1ccc(-c2nc3ncccn3c2Nc2ccccc2)cc1 |  |  |  |  | 5.2 | > 100 | > 19 |  |  | 
COc1ccccc1-c1nc2ncccn2c1N(C(C)=O)C1CCCCC1 |  |  |  |  | > 100 | > 100 | > 1 |  |  | 
